Results published in the Kinase Knowledgebase extract (Sharma et al. 2016).

What follows are molecules tested against MAPK14 (human) (UniProt Q16539) (assay: Inhibition of MAPK14 Kinase Assay).
Sequence of MAPK14 (human) (Q16539 whole entry, looked up): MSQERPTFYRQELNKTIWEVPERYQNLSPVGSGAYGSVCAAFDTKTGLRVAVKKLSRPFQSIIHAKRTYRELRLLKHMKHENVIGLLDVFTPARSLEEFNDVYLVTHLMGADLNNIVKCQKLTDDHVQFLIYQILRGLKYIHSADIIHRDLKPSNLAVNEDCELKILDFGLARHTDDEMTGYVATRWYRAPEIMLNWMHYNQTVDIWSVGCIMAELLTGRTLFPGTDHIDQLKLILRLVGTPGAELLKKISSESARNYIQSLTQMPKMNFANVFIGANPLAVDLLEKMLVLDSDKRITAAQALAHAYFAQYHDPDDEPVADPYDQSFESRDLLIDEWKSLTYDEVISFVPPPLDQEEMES

Row | SMILES | IC50 [nM]
1 | O=C(Cc1ccc(F)cc1)Nc1onc(-c2ccc(F)cc2)c1-c1ccncc1 | 113
2 | CSc1nc(-c2ccc(F)cc2)c(-c2ccncc2)n1NC(C)=O | 840
3 | CSc1nc(-c2ccc(F)cc2)c(-c2ccncc2)n1N | 1880
4 | CSc1nc(-c2ccc(F)cc2)c(-c2ccncc2)n1NC(=O)C(C)c1ccccc1 (stereo not given) | 95
5 | CSc1nc(-c2ccc(F)cc2)c(-c2ccncc2)n1NC(=O)COc1ccccc1 | 1080
6 | CSc1nc(-c2ccc(F)cc2)c(-c2ccncc2)n1NC(=O)Cc1ccccc1Cl | 58
7 | CSc1nc(-c2ccc(F)cc2)c(-c2ccncc2)n1NC(=O)c1ccccc1 | 314
8 | Cn1nc(-c2ccc(F)cc2)c(-c2ccncc2)c1NC(=O)Cc1ccc(F)cc1 | 29
9 | CSc1nc(-c2ccc(F)cc2)c(-c2ccncc2)n1NC(=O)c1cc2ccccc2o1 | 873
10 | CC(C(=O)Nc1onc(-c2ccc(F)cc2)c1-c1ccncc1)c1ccccc1 (stereo not given) | 107
11 | CSc1nc(-c2ccc(F)cc2)c(-c2ccncc2)n1NC(=O)c1ccc(C)c(F)c1 | 242
12 | CSc1nc(-c2ccc(F)cc2)c(-c2ccncc2)n1NC(=O)Nc1ccc(F)cc1 | 145
13 | CSc1nc(-c2ccc(F)cc2)c(-c2ccncc2)n1NC(=O)c1ccco1 | 308
14 | CSc1nc(-c2ccc(F)cc2)c(-c2ccncc2)n1NC(=O)Cc1ccc(F)cc1 | 244
15 | Cn1nc(-c2ccc(F)cc2)c(-c2ccncc2)c1NC(=O)Cc1ccccc1Cl | 71
